Patent US8846691B2, “Heterocyclic carboxylic acid derivatives having a 2,5,7-substituted oxazolopyrimidine ring” (Sanofi, priority 2010, dated 2014)

Target: T1, human Edg 1 receptor (Homo sapiens, UniProt P21453)
T1 construct: expressed in transfected cells; membrane preparation
Assay: GTP-γ-S assay using human Edg 1 receptors (scintillation proximity assay, CHO Flp-In membrane preparation)
Type: biochemical
Conditions: test compound at 10 μM; high control 10 μM S1P regarded as 100% activation; background-corrected; triplicate; read-out: % activation (Edg 1 receptor activation in percent of the activation by 10 μM S1P)
From the text: Determination of the Pharmacological Activity A) GTP-γ-S Assay Using Human Edg 1 Receptors
In order to determine the Edg 1 receptor activation by the compounds of the invention, a GTP-γ-S ((GTP-γ-S=guanosine 5′-[thio]triphosphate) assay for G-protein coupled receptor binding based on the scintillation proximity assay principle was used, employing a cell membrane preparation from a CHO Flp-In cell line which constitutively overexpresses the human Edg 1 receptor.
The Flp-In™ expression system (Invitrogen, cat. no. K6010-01) allows the generation of stable mammalian cell lines into which the gene of interest has been integrated through homologous recombination at a specific genomic location called Flp Recombination Target (FRT) site by means of a Flp recombinase encoded by the pOG44 expression plasmid. The integration of the pcDNA5/FRT expression construct into the Flp-In host cell line genome results in the transcription of the gene of interest. The stably transfected cells become hygromycin-resistant.
One day prior to transfection, 200 000 Flp-In-CHO cells were seeded in Ham F-12 medium (Invitrogen, cat. no. 31765) supplemented with 10% fetal calf serum (FCS; Perbio Science, cat. no. SH30068.03) in a 6-well plate and incubated at 37° C./5% CO2 overnight. Using the FuGENE® 6 transfection reagent (Roche, cat. no. 11988387001), cells were cotransfected with the Flp recombinase expression plasmid pOG44 and a modified plasmid additionally containing the edg 1 gene (accession no. NM_001400) termed as pcDNA5-FRT-TO_nFLAG_DEST-EDG 1 with a 9:1 ratio. To obtain the modified pcDNA5-FRT-TO_nFLAG_DEST plasmid, the Invitrogen plasmid pcDNA5/FRT/TO (Invitrogen, cat. no. V6520-20) was adapted to the Gateway® (Invitrogen) cloning system by inserting a Gateway cassette containing attR recombination sites flanking a ccdB gene and a chloramphenicol-resistance gene (Gateway conversion system, Invitrogen, cat. no. 11828-029). In addition a FLAG tag epitope was added before the 5′ att recombination site to allow recombinant expression of N-terminally FLAG-tagged proteins.
For the transfection of one well, 1.08 μg of pOG44 and 0.12 μg of pcDNA5-FRT-TO_nFLAG_DEST-EDG 1 were mixed with 100 μl of serum-free Ham F-12 medium containing 6 μl of FuGENE® 6 transfection reagent. After 20 min of incubation, the transfection reagent/DNA complex was distributed dropwise on the cells. The cells were incubated for 24 h at 37° C. Then the cells from 3 wells were transferred to a T75 flask (Greiner Cellstar®, cat. no. 658175) containing Ham F-12 medium supplemented with 10% of FCS but without antibiotic and were incubated for another 24 h. 48 h after transfection, the medium was replaced by selection medium (Ham F-12 supplemented with 10% of FCS and 300 μg/ml of hygromycin B (Invitrogen, cat. no. 10687-010)). The medium was exchanged every 2 to 3 days until a resistant population of cells had grown. […] After 2 weeks of selection, the cells were transferred into T175 flasks (Greiner Cellstar®, cat. no. 660175) and cultivated for batch production. Cells were harvested from the culture flasks by short treatment (2 to 5 min) with Accutase (PAA, cat. no. L^11-007), resuspended in selection medium (see above) and centrifuged at 200×g for 5 min. Cells were resuspended in a mixture of 90% of FCS and 10% of dimethyl sulfoxide and stored frozen in liquid nitrogen.
A membrane preparation was obtained by standard methods from the afore-described CHO Flp-In cell line constitutively overexpressing the human Edg 1 receptor. Briefly, the cryopreserved cells were taken in culture and grown until confluency in T175 cell culture flasks (Becton Dickinson, cat. no. 35 5001). […]

T1 sequence (P21453 whole entry): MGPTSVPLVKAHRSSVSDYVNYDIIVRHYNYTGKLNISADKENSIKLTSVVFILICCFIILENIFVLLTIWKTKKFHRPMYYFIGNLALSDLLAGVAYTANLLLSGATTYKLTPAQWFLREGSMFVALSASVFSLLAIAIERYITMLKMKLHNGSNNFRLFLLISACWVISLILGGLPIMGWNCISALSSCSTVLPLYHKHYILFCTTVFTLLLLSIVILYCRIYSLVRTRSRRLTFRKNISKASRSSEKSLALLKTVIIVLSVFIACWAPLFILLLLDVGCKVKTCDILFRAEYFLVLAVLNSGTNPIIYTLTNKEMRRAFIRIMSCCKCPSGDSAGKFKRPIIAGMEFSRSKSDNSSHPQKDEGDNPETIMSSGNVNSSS

| SMILES | activation at 10 µM [%] |
| --- | --- |
| CCCOc1nc(Oc2cc(F)ccc2F)nc2oc(-c3cc(C)c(OCC(=O)N4CCC[C@H]4C(=O)O)c(C)c3)nc12 [Example 1, (S)-1-(2-{4-[5-(2,5-Difluorophenoxy)-7-propoxyoxazolo[5,4-d]pyrimidin-2-yl]-2,6-dimethylphenoxy}acetyl)pyrrolidine-2-carboxylic acid] | 101 |
| CCCOc1nc(OC2CCCC[C@H]2F)nc2oc(-c3cc(C)c(OCC(=O)N4CCC[C@H]4C(=O)O)c(C)c3)nc12 (stereo partly drawn) [Example 2, (S)-1-(2-{4-[5-(trans-2-fluorocyclohexyloxy)-7-propoxyoxazolo[5,4-d]pyrimidin-2-yl]-2,6-dimethylphenoxy}acetyl)pyrrolidine-2-carboxylic acid] | 97 |
| CCCOc1nc(Oc2ccccc2F)nc2oc(-c3cc(C)c(OCC(=O)N4CCC[C@H]4C(=O)O)c(C)c3)nc12 [Example 3, (S)-1-(2-{4-[5-(2-Fluorophenoxy)-7-propoxyoxazolo[5,4-d]pyrimidin-2-yl]-2,6-dimethylphenoxy}acetyl)pyrrolidine-2-carboxylic acid] | 96 |
| CCCOc1nc(Oc2cc(F)ccc2C)nc2oc(-c3cc(C)c(OCC(=O)N4CCC[C@H]4C(=O)O)c(C)c3)nc12 [Example 4, (S)-1-(2-{4-[5-(5-Fluoro-2-methylphenoxy)-7-propoxyoxazolo[5,4-d]pyrimidin-2-yl]-2,6-dimethylphenoxy}acetyl)pyrrolidine-2-carboxylic acid] | 110 |
| CCCOc1nc(Oc2ccc(C)c(F)c2)nc2oc(-c3cc(C)c(OCC(=O)N4CCC[C@H]4C(=O)O)c(C)c3)nc12 [Example 5, (S)-1-(2-{4-[5-(3-Fluoro-4-methylphenoxy)-7-propoxyoxazolo[5,4-d]pyrimidin-2-yl]-2,6-dimethylphenoxy}acetyl)pyrrolidine-2-carboxylic acid] | 79 |
| CCCOc1nc(Oc2cccnc2)nc2oc(-c3cc(C)c(OCC(=O)N4CCC[C@H]4C(=O)O)c(C)c3)nc12 [Example 6, (S)-1-(2-{2,6-Dimethyl-4-[7-propoxy-5-(pyridin-3-yloxy)oxazolo[5,4-d]pyrimidin-2-yl]phenoxy}acetyl)pyrrolidine-2-carboxylic acid] | 112 |
| CCCOc1nc(Oc2ccc(F)cc2F)nc2oc(-c3cc(C)c(OCC(=O)N4CCC[C@H]4C(=O)O)c(C)c3)nc12 [Example 7, (S)-1-(2-{4-[5-(2,4-Difluorophenoxy)-7-propoxyoxazolo[5,4-d]pyrimidin-2-yl]-2,6-dimethylphenoxy}acetyl)pyrrolidine-2-carboxylic acid] | 90 |
| CCCOc1nc(Oc2ccccc2)nc2oc(-c3cc(C)c(OCC(=O)N4CCC[C@H]4C(=O)O)c(C)c3)nc12 [Example 8, (S)-1-{2-[2,6-Dimethyl-4-(5-phenoxy-7-propoxyoxazolo[5,4-d]pyrimidin-2-yl)phenoxy]acetyl}pyrrolidine-2-carboxylic acid] | 108 |
| CCCOc1nc(Oc2cccc(Cl)c2)nc2oc(-c3cc(C)c(OCC(=O)N4CCC[C@H]4C(=O)O)c(C)c3)nc12 [Example 9, (S)-1-(2-{4-[5-(3-Chlorophenoxy)-7-propoxyoxazolo[5,4-d]pyrimidin-2-yl]-2,6-dimethylphenoxy}acetyl)pyrrolidine-2-carboxylic acid] | 128 |
| CCOc1nc(Oc2cccc(Cl)c2)nc2oc(-c3cc(C)c(OCC(=O)N4CCC[C@H]4C(=O)O)c(C)c3)nc12 [Example 10, (S)-1-(2-{4-[5-(3-Chlorophenoxy)-7-ethoxyoxazolo[5,4-d]pyrimidin-2-yl]-2,6-dimethylphenoxy}acetyl)pyrrolidine-2-carboxylic acid] | 69 |
| CCOc1nc(Oc2cccc(F)c2)nc2oc(-c3cc(C)c(OCC(=O)N4CCC[C@H]4C(=O)O)c(C)c3)nc12 [Example 11, (S)-1-(2-{4-[7-Ethoxy-5-(3-fluorophenoxy)oxazolo[5,4-d]pyrimidin-2-yl]-2,6-dimethylphenoxy}acetyl)pyrrolidine-2-carboxylic acid] | 100 |
| CCOc1nc(Oc2ccccc2F)nc2oc(-c3cc(C)c(OCC(=O)N4CCC[C@H]4C(=O)O)c(C)c3)nc12 [Example 12, (S)-1-(2-{4-[7-Ethoxy-5-(2-fluorophenoxy)oxazolo[5,4-d]pyrimidin-2-yl]-2,6-dimethylphenoxy}acetyl)pyrrolidine-2-carboxylic acid] | 70 |
| CCOc1nc(Oc2cc(F)ccc2F)nc2oc(-c3cc(C)c(OCC(=O)N4CCC[C@H]4C(=O)O)c(C)c3)nc12 [Example 13, (S)-1-(2-{4-[5-(2,5-Difluorophenoxy)-7-ethoxyoxazolo[5,4-d]pyrimidin-2-yl]-2,6-dimethylphenoxy}acetyl)pyrrolidine-2-carboxylic acid] | 95 |
| CCOc1nc(Oc2cc(F)ccc2C)nc2oc(-c3cc(C)c(OCC(=O)N4CCC[C@H]4C(=O)O)c(C)c3)nc12 [Example 14, (S)-1-(2-{4-[7-Ethoxy-5-(5-fluoro-2-methylphenoxy)oxazolo[5,4-d]pyrimidin-2-yl]-2,6-dimethylphenoxy}acetyl)pyrrolidine-2-carboxylic acid] | 99 |
| CCCOc1nc(N(C)CCC(F)(F)F)nc2oc(-c3cc(C)c(OCC(=O)N4CCC[C@H]4C(=O)O)c(C)c3)nc12 [Example 15, (S)-1-[2-(2,6-Dimethyl-4-{5-[methyl-(3,3,3-trifluoropropyl)amino]-7-propoxyoxazolo[5,4-d]pyrimidin-2-yl}phenoxy)acetyl]pyrrolidine-2-carboxylic acid] | 42 |
| CCCOc1nc(OCC2CCC2)nc2oc(-c3cc(C)c(OCC(=O)N4CCC[C@H]4C(=O)O)c(C)c3)nc12 [Example 16, (S)-1-{2-[4-(5-Cyclobutylmethoxy-7-propoxyoxazolo[5,4-d]pyrimidin-2-yl)-2,6-dimethylphenoxy]acetyl}pyrrolidine-2-carboxylic acid] | 85 |
